From the NIST ThermoML archive (doi:10.1021/je8008254)
Several values for one entry are separate records, joined by “and”; a condition that tells them apart may be missing. Identical values can stand only once.

How the values were obtained:
[1] = for mass density / viscosity: 101 kPa, Liquid
[2] = xn = mol fraction of the nth substance listed; conditions: 101 kPa, Liquid

CCCCn1cc[n+](C)c1.N#C[S-] [1-butyl-3-methylimidazolium thiocyanate]
[1]
Conditions	mass density [kg/m3]	viscosity
298.15 K	1069.79	51.7 mPa·s
308.15 K	1063.89	34.9 mPa·s
318.15 K	1058.02	24.2 mPa·s
328.15 K	1052.19	16.7 mPa·s
338.15 K	1046.43	12.73 mPa·s and 12.7 mPa·s
348.15 K	1040.7	9.98 mPa·s

Conditions	Glass transition temperature [°C]
[1], Glass, DTA	-91.5

CCCCn1cc[n+](C)c1.N#C[S-] [1-butyl-3-methylimidazolium thiocyanate] + CCO
[2]
Conditions	mass density [kg/m3]	viscosity [mPa·s]
298.15 K, x1 = 0.0473	829.74	1.48
298.15 K, x1 = 0.1129	876.41	2.07
298.15 K, x1 = 0.1877	916.69	2.95
298.15 K, x1 = 0.2943	957.41	4.7
298.15 K, x1 = 0.3637	978.05	6.36
298.15 K, x1 = 0.5306	1014.59	11.7
298.15 K, x1 = 0.696	1039.72	19.7
298.15 K, x1 = 0.8114	1052.9	27.4
298.15 K, x1 = 0.9174	1062.78	36.2
298.15 K, x1 = 1	1069.79	51.7
308.15 K, x1 = 0.0473	821.61	1.23
308.15 K, x1 = 0.1129	868.74	1.71
308.15 K, x1 = 0.1877	909.46	2.41
308.15 K, x1 = 0.2943	950.56	3.77
308.15 K, x1 = 0.3637	971.37	4.95
308.15 K, x1 = 0.5306	1008.22	8.89
308.15 K, x1 = 0.696	1033.57	14.3
308.15 K, x1 = 0.8114	1046.84	19.2
308.15 K, x1 = 0.9174	1056.82	24.7
308.15 K, x1 = 1	1063.89	34.9
318.15 K, x1 = 0.0473	813.39	1.05
318.15 K, x1 = 0.1129	861.06	1.44
318.15 K, x1 = 0.1877	902.2	2.01
318.15 K, x1 = 0.2943	943.72	3.1
318.15 K, x1 = 0.3637	964.72	3.94
318.15 K, x1 = 0.5306	1001.9	7
318.15 K, x1 = 0.696	1027.47	10.9
318.15 K, x1 = 0.8114	1040.84	14.2
318.15 K, x1 = 0.9174	1050.88	17.8
318.15 K, x1 = 1	–	24.2
328.15 K, x1 = 0.0473	805.05	0.896
328.15 K, x1 = 0.1129	853.27	1.23
328.15 K, x1 = 0.1877	894.91	1.71
328.15 K, x1 = 0.2943	936.87	2.59
328.15 K, x1 = 0.3637	958.11	3.24
328.15 K, x1 = 0.5306	995.61	5.97
328.15 K, x1 = 0.696	1021.4	8.54
328.15 K, x1 = 0.8114	1034.86	10.9
328.15 K, x1 = 0.9174	1044.99	13.4
328.15 K, x1 = 1	1052.19	16.7
338.15 K, x1 = 0.0473	796.53	0.78
338.15 K, x1 = 0.1129	845.44	1.06
338.15 K, x1 = 0.1877	887.57	1.47
338.15 K, x1 = 0.2943	930.03	2.2
338.15 K, x1 = 0.3637	951.47	2.75
338.15 K, x1 = 0.5306	989.36	4.56
338.15 K, x1 = 0.696	1015.36	6.84
338.15 K, x1 = 0.8114	1028.95	8.64
338.15 K, x1 = 0.9174	1039.15	10.5
338.15 K, x1 = 1	1046.43	12.73
348.15 K, x1 = 0.0473	787.85	–
348.15 K, x1 = 0.1129	837.47	0.926
348.15 K, x1 = 0.1877	880.22	1.28
348.15 K, x1 = 0.2943	923.18	1.9
348.15 K, x1 = 0.3637	944.88	–
348.15 K, x1 = 0.5306	983.14	3.8
348.15 K, x1 = 0.696	1009.4	5.58
348.15 K, x1 = 0.8114	1023.05	7.01
348.15 K, x1 = 0.9174	1033.34	8.39
348.15 K, x1 = 1	1040.7	9.98
